The values below come from patent US10233207B2, “Crystalline form of nicotinamide riboside” (W. R. Grace & Co.—Conn., priority 2014, dated 2019).

The format of data set [1] is physicochemical. An excerpt:
The instant crystalline Form I of nicotinamide riboside chloride may be provided in one of several different morphologies. For example, the crystalline material may exist in a morphology having a bulk density of about 0.25 to about 0.4 g/mL, or may exist in a morphology having a bulk density of about 0.40 to about 0.65 g/mL. The present disclosure also relates to mixtures of at least these two morphologies in any proportion. FIG. 3A depicts a Scanning Electron Microscopy (SEM) image of the inventive crystalline nicotinamide riboside chloride in a morphology having a bulk density of about 0.25 to about 0.4 g/mL, and FIG. 3B depicts a Scanning Electron Microscopy (SEM) image of the inventive crystalline nicotinamide riboside chloride in a morphology having a bulk density of about 0.40 to about 0.65 g/mL. […] This morphology also appears to provide the product with a slightly higher purity as well. Because of the purity, stability, and color variations in the other morphology (the morphology having a bulk density of about 0.40 to about 0.65 g/mL), in at least some instances a preference exists for the crystalline nicotinamide chloride having a bulk density of about 0.25 to about 0.4 g/mL as it appears to produce higher quality product with more consistency.

Data set [2] can be described thus: Hygroscopicity / Dynamic Vapor Sorption (DVS) moisture sorption isotherm. The data set is classed as physicochemical. The method, then: Moisture sorption isotherms were collected on a DVS-1 system from Surface Measurement Systems UK Ltd. (London, UK) for both crystalline Form I of nicotinamide riboside chloride and for the amorphous form of nicotinamide riboside chloride. Sample sizes were between 9.7 and 14.3 mg of solid material. The relative humidity was started with an initial drying step going from 40% RH to 0% RH. Subsequently, the relative humidity was increased to 95% (sorption), decreased to 0% RH (desorption) and increased again to 95% RH (sorption). Weight equilibration was set per step with a holding time of 1 hour (10% relative humidity step). Individual samples sizes were 12.6568 mg for crystalline Form I and 9.6799 mg for the amorphous sample. FIG. 8A provides a DVS change in mass plot for a sample of the crystalline Form I of nicotinamide riboside chloride, and FIG. 8B provides a DVS isotherm plot for a sample of the crystalline Form I of nicotinamide riboside chloride. FIG. 9A provides a DVS change in mass plot for a sample of the amorphous form of nicotinamide riboside chloride, and FIG. 9B provides a DVS isotherm plot for a sample of the amorphous form of nicotinamide riboside chloride.
FIG. 10 provides a comparison of the sorption curve for crystalline Form I of nicotinamide riboside chloride with the sorption curve for the amorphous sample. […] Even at 70% relative humidity, the weight of the crystalline sample had not increased by more than about 1.0%. These characteristics of the crystalline Form I are advantageous for the handling of the material overall and represent the ability to remain stable over a greater range of working conditions relative to the amorphous form.

For data set [3] the following is noted: high-fat diet supplemented with nicotinamide riboside; cited from earlier work.

Take `NC(=O)c1ccc[n+]([C@@H]2O[C@H](CO)[C@@H](O)[C@H]2O)c1.[Cl-]`: the “stability to degradation via oxygen or water absorption, compared with morphology of bulk density about 0.40 to about 0.65 g/mL” value in data set [1] is “more stable to degradation via oxygen or water absorption”.

In the case of “3-carbamoyl-1-[(2R,3R,4S5R)-3,4-dihydroxy-5-(hydroxymethypoxolan-2-yl]-pyrin-1-ylium chloride”, in data set [2] (0% to 60% relative humidity, sorption curve FIG. 10), the “rate of water absorption compared with amorphous material” value is on record as “much less prone to absorption at lower relative humidities than the amorphous material”. The “weight increase of sample (water sorption)” value in data set [2] (70% relative humidity) is listed as no more than 1.0%. Also, the entries for the “water uptake (water vapor sorption isotherm)” value in data set [2] (relative humidity of up to 60%) and in data set [2] (relative humidity of up to 70%) were “not more than 0.5 wt %” and “not more than 1.0 wt %”, respectively.

With `NC(=O)c1ccc[n+]([C@@H]2O[C@H](CO)[C@@H](O)[C@H]2O)c1` [nicotinamide riboside, Nicotinamide riboside], the “less weight gained than mice on same high-fat diet without nicotinamide riboside” value in data set [3] is 60%.
